{
  "source": "patent EP0268663B1",
  "about": "“PHOSPHOPEPTIDES” (THE UNIVERSITY OF MELBOURNE, priority 1986, dated 1995)",
  "key": {"[1]": {"assay": "Sequestration of calcium phosphate by the peptide", "type": "physicochemical", "conditions": "10mg/ml solution at pH 7.0; metastable supersaturated solution", "method": "The active peptides can sequester calcium phosphate and other salts of divalent metal ions. One mole of T1 binds 16 mole of CaHPO₄ such that a 10mg/ml solution of T1 at pH 7.0 can solubilize 60mM CaHPO₄ producing a metastable supersaturated solution with respect to calcium phosphate species. With chloride as the counter ion one mole of T1 binds only 5 mole of Ca⁺⁺ binding only to serine phosphates. One mole of T1 with about 16 mole of CaHPO₄ bound (M.W. 4883) will henceforth be referred to as calcium phosphate T1."}, "Intra-Oral Caries Test": {"assay": "Intra-Oral Caries Test", "type": "in vivo", "conditions": "plaque exposed twice a day to the peptide T1 solution (1.8% w/v calcium phosphate T1)", "method": "The anticariogenicity of phosphopeptide T1 was determined using a modification of the intra-oral caries test of Koulourides and Ostrom (Caries Res. 10:442-482, 1976). Enamel slabs were inset in a removable intra-oral appliance to simulate an approximal area. This was done on both sides of the removable appliance (left and right). The appliance was worn to allow plaque accumulation in the simulated approximal areas. Eight times a day the appliance was removed and placed in a solution at 37°C. The solution was 2% w/v sucrose, 2% w/v glucose, 140 mM KCl, 20mM NaCl at pH 7.0. Twice a day the right side enamel slabs received exposure to a solution containing 1.8% w/v calcium phosphate T1 in 140 mM KCl, 20 mM NaCl at pH 7.0, while the left side received only the salt solution. At the completion of the experiment the enamel slabs were removed, sectioned and subjected to microradiography and microhardnass testing. […] The results were confirmed by microhardness analysis. Plaque was also taken from both sides of the appliance and analysed for calcium phosphate, serine phosphate and peptide T1 using a competitive, quantitative, enzyme-linked immunosorbent assay (ELISA) utilising monoclonal antipeptide T1 antibodies."}},
  "note": "Square brackets hold non-standard residues; d marks the D form. Peptide text beside a SMILES is read from it. pS = N[C@@H](COP(=O)(O)O)C(=O)O",
  "data": [
    {"smiles": "CC[C@H](C)[C@H](NC(=O)[C@H](COP(=O)(O)O)NC(=O)[C@H](CCC(=O)O)NC(=O)[C@H](C)NC(=O)[C@H](CCC(=O)O)NC(=O)[C@H](CCSC)NC(=O)[C@@H](N)CCC(=O)O)C(=O)N[C@@H](COP(=O)(O)O)C(=O)N[C@@H](COP(=O)(O)O)C(=O)N[C@@H](COP(=O)(O)O)C(=O)N[C@@H](CCC(=O)O)C(=O)N[C@@H](CCC(=O)O)C(=O)N[C@H](C(=O)N[C@H](C(=O)N1CCC[C@H]1C(=O)N[C@@H](CC(N)=O)C(=O)N[C@@H](COP(=O)(O)O)C(=O)N[C@H](C(=O)N[C@@H](CCC(=O)O)C(=O)N[C@@H](CCC(N)=O)C(=O)N[C@@H](CCCCN)C(=O)O)C(C)C)C(C)C)[C@@H](C)CC", "note": "[Phosphopeptide T1] (H-EMEAE[pS]I[pS][pS][pS]EEIVPN[pS]VEQK-OH)", "values": [
      {"measurement": "CaHPO₄ solubilized", "setting": "[1]", "result": 60, "unit": "mM"},
      {"measurement": "level of peptide in plaque (ELISA)", "setting": "Intra-Oral Caries Test", "result": "at least 0.4 % w/wet wt of plaque"}
    ]}
  ]
}
